In patent US20250195461A1, “Fibrate Compositions for Treating Inflammation and Neuroinflammation” (TRx Biosciences Limited, priority 2022, published 2025):

assay: Miscibility / self-emulsification in dissolution media modelling ICH dissolution testing; format: physicochemical; conditions: 1 g of 100% or 75% preparation in 1 L PBS with […] curcumin, 37° C., 300 rpm 10 min, then 10 min without stirring
Method: To assess whether oleic acid could self-emulsify at the concentrations used in the disclosed pharmaceutical compositions, experiments was performed that were designed to model dissolution testing according to International Council for Harmonisation (ICH) guidelines. One liter of a dissolution media comprising phosphate buffered saline (PBS) and 2.5% curcumin was warmed to 37° C. and constant stirring at 300 rpm maintained. Curcumin was added as a coloring agent and was very effective at visualizing the distribution of lipids through the dissolution media. Miscibility experiments were performed using two concentrations of oleic acid nominally above the CMC concentration for this fatty acid. In one series of experiments, 1 g of 100% oleic acid was added to the dissolution media. The control compound was 1 g of 100% MAISINE™ CC. In a second series of experiments 1 g of 75% oleic acid (diluted with 250 mg of MAISINE™ CC) was added to the dissolution media. The control compound was 1 g of 75% MAISINE™ CC. The miscibility of oleic acid and MAISINE™ CC was assessed by observing the dissolution media for 10 minutes with constant stirring and then 10 minutes without stirring. Photographs were taken at time 0, 1, 2, 3, 4, 5 and 10 minutes during the stirring phase and 2, 4 and 10 minutes after stirring ceased.

With CCCCCCCC/C=C\CCCCCCCC(=O)O [oleic acid] the “miscibility in dissolution media” value was “not miscible”.

assay: not given; conditions: reported value; cited from earlier work

Compared with CCCCCCCC/C=C\CCCCCCCC(=O)O [oleic acid], CCCCCCCCCCCCCCCCCC(=O)[O-].[Na+] [sodium stearate] is 32-fold lower in “critical micellar concentration (CMC)” value: 2.3 mM for the first, 0.071 mM for the second.

assay: not given; conditions: cited from earlier work

Compared with CC(C)(Oc1ccc(CCNC(=O)c2ccc(Cl)cc2)cc1)C(=O)O [bezafibrate], CC(C)(Oc1ccc(C(=O)c2ccc(Cl)cc2)cc1)C(=O)O [fenofibric acid] is higher in “log P” value: 4.0 for the first, 4.4 for the second.

Compared with CC(C)(Oc1ccc(C2CC2(Cl)Cl)cc1)C(=O)O (centres unmarked) [ciprofibrate], CC(C)(Oc1ccc(C2CCCc3ccccc32)cc1)C(=O)O (centres unmarked) [nafenopin] is higher in “log P” value: 3.6 for the first, 4.9 for the second.

Going from CCC(C)(Oc1ccc(C2(c3ccc(OC(C)(CC)C(=O)O)cc3)CCCCC2)cc1)C(=O)O (centres unmarked) [clinofibrate] to CC(C)(Oc1ccc(Cl)cc1)C(=O)OCCCOC(=O)C(C)(C)Oc1ccc(Cl)cc1 [simfibrate], the “log P” value falls from 7.5 to 6.2.

First: CCOC(=O)C(C)(C)Oc1ccc(Cl)cc1 [clofibrate]
Second: CN(C)C(=O)CCCOC(=O)C(C)(C)Oc1ccc(Cl)cc1 [clofibride]
The “log P” value of the first is higher: 3.4 for the first, 2.8 for the second.

Compared with CC(C)(Oc1ccc(Cl)cc1)C(=O)OCCOC(=O)c1cccnc1 [etofibrate], CC(C)(Oc1ccc(Cl)cc1)C(=O)OCCCOC(=O)c1cccnc1 [ronifibrate] is higher in “log P” value: 3.5 for the first, 3.9 for the second.

For Cc1ccc(C)c(OCCCC(C)(C)C(=O)O)c1 [gemfibrozil], the “log P” value is listed as 4.4.
